Measurements as given in patent US6280760A, “Peptide-coated implants and methods for producing same” (Merck Patent Gesellschaft mit beschraenkter Haftung, priority 1997, dated 2001).

Key:
[1] = test system: MC3T3 H1 osteoblasts; assay: Adhesion of MC3T3 H1 osteoblasts to PMMA moulded articles coated with acrylate RGD peptides; format: cell-based, mouse
Procedure: For the covalent coupling of these peptides to polymerized PMMA (polymethyl methacrylate) surfaces, appropriate shaped articles of differing porosity (diameter: 10 mm; height: 2 mm) were prepared from three different PMMA components.
Bone cement based on PMMA (Merck KGaA, Germany, Licence No. 5181.00.00) corresponding to the product description (40 g of powder+20 ml of liquid).
10 g of PMMA/PHEMA (polyhydroxyethyl methacrylate) granules, particle size 0.5-0.6 mm (Biomet) were mixed with 1.3 ml of an HEMA solution (68.6% HEMA, 29.4% TEGMA [triethylene glycol dimethacrylate], 2% tBPB, [tert-butyl peroxybenzoate]) and adhered by means of this to a porous support material.
10 g of PMMA granules (Plex Y7H, Rohm, Germany), particle fraction 0.7-2 mm were mixed with 1.5 ml of a methyl methacrylate (MMA) solution (68.6% MMA, 29.4% TEGMA, 2% tBPB) and adhered by this means to a porous support material.
For the covalent coupling of the acrylate peptides to the prepolymerized PMMA moulded articles, stock solutions of the acrylate peptides 1, 2, 3 and 4 were prepared in a final concentration of 100 μM in each case in DMSO/0.2% camphorquinone (w/v). Then, by dilution with isopropanol/0.2% camphorquinone (w/v), concentration series having final peptide concentrations of 0.1 nM, 1 nM, 10 nM, 100 nM, 1 μM and 10 μM in each case were prepared. The moulded articles were incubated in daylight and at room temperature for 2 hours and then stored at 4° C. in the dry state. Before use, the samples were washed with PBS, pH 7.4, to remove unbound peptides and stored at 4° C. in PBS, pH 7.4, overnight.
By addition of 250 μl/moulded article each of a 5% strength BSA solution in PBS, pH 7.4, and subsequent incubation for 2 hours at room temperature and washing once with PBS, pH 7.4, non-specific cell-binding sites were blocked.
Subsequently, the adhesion of osteoblasts of the MC3T3 H1 line, obtained from the calvaria of neonatal mice (Heermeier et al., 1995, Cells and Materials 5: 309-321) to the above-described peptide-coated surfaces was investigated.
The MC3T3 H1 osteoblasts were inoculated at an inoculation density of 48,000 cells/cm^2, as described above, in Costar 48-well plates, with PMMA moulded articles coated with RGD peptide and then incubated for 1 hour at 37° C., 95% atmospheric humidity and 5% CO2. Cells non-adhered during the experiment were then washed off twice with PBS, pH 7.4.
(§1) The quantification of the adhered cells was carried out indirectly via the activity determination of the cellular enzyme N-acetylhexosaminidase using an appropriate standard curve according to the method of Landegren (1984, J. Immunol. Methods, 67: 379-388).

[2] = test system: primary human osteoblasts; assay: Adhesion of primary human osteoblasts to BSA-pretreated polystyrene surfaces coated with thiol-RGD peptides via sulpho-SMPB; format: cell-based; settings: 48,000 cells/cm^2, 1 hour
Procedure: (§2) The covalent coupling of the peptides according to the invention with sulphosuccinimidyl 4-(p-maleimidophenyl)butyrate (sulpho-SMPB) to culture surfaces of polystyrene precoated with bovine serum albumin (BSA) was accomplished following the established processes of Singer et al., 1987, J. Cell. Biol. 104: 573, or of Ruoslahti et al. (1982, Methods. Enzymol., 82: 803-831).
(§3) To do this, 48-well plates (Costar, "non-tissue culture treated", Art. No. 3547) were each coated with 250 μl of PBS (phosphate-buffered saline), pH=8.3, 2% BSA, per well and incubated overnight at room temperature in order to generate a BSA layer on the polystyrene. The plates were then washed with 250 μl of PBS, pH=8.3, per well and incubated at room temperature for 1 hour with 250 μl each of a solution containing 100 μg/ml of SMPB in PBS, pH 8.3. Washing of the wells was then carried out three times using 250 μl of PBS, pH 8.3, each time. For the preparation of the coating solutions, the appropriate thiol-RGD peptide was prepared in the following final concentrations in PBS, pH 8.3: 1 nM, 10 nM, 100 nM, 1 μM, 10 μM, 100 μM and 1 mM. […]
as §1

[3] = test system: primary rat osteoblasts; assay: Adhesion of primary rat osteoblasts to BSA-pretreated polystyrene surfaces coated with thiol-RGD peptides via sulpho-SMPB; format: cell-based; settings: 48,000 cells/cm^2, 1 hour
Procedure: as §2, §3, §1

[4] = test system: human melanoma cell line M21L; assay: Adhesion of alphav beta3-/alphav beta5-negative control cells M21L to thiolpeptide-coated BSA-polystyrene surfaces; format: cell-based; settings: BSA-pretreated polystyrene coated with thiolpeptide
Procedure: as §2, §3, §1

[5] = test system: osteoblast cultures; assay: Adhesion of the different osteoblast cell species to thiolpeptide-coated BSA-polystyrene surfaces (statements over all cultures); format: cell-based, mouse, human, rat; settings: all osteoblast cultures employed
Procedure: as §2, §3, §1

[6] = test system: MC3T3 H1 osteoblasts; assay: Adhesion of MC3T3 H1 osteoblasts to BSA-pretreated polystyrene surfaces coated with thiol-RGD peptides via sulpho-SMPB; format: cell-based, mouse; settings: for stimulation of the adhesion of cultured mouse MC3T3 H1 osteoblasts: BSA-pretreated polystyrene, peptide coupled via sulpho-SMPB, FIG. 2; for maximum adsorption rate (of the inoculated cells): MC3T3 H1 mouse osteoblasts, 48,000 cells/cm^2, 1 hour
Procedure: as §2
To do this, 48-well plates (Costar, "non-tissue culture treated", Art. No. 3547) were each coated with 250 μl of PBS (phosphate-buffered saline), pH=8.3, 2% BSA, per well and incubated overnight at room temperature in order to generate a BSA layer on the polystyrene. The plates were then washed with 250 μl of PBS, pH=8.3, per well and incubated at room temperature for 1 hour with 250 μl each of a solution containing 100 μg/ml of SMPB in PBS, pH 8.3. Washing of the wells was then carried out three times using 250 μl of PBS, pH 8.3, each time. For the preparation of the coating solutions, the appropriate thiol-RGD peptide was prepared in the following final concentrations in PBS, pH 8.3: 1 nM, 10 nM, 100 nM, 1 μM, 10 μM, 100 μM and 1 mM. After addition of 250 μl each of coating solution/well, the plates were incubated at room temperature overnight and then washed three times with PBS, pH 8.3. By addition of 250 μl each of a 5% strength BSA solution in PBS, pH 7.4, subsequent incubation for 2 hours at room temperature and washing with PBS, pH 7.4, non-specific cell-binding sites were blocked. Polystyrene surfaces, which from the coating were treated with a 5% strength BSA solution identically to the positive samples, functioned as negative coating controls. The adhesion of four cell cultures which were obtained from three different species was then investigated on the abovementioned surfaces coated with RGD peptide:
osteoblast cell line MC3T3 H1, obtained from the calvaria of neonatal mice (Heermeier et al., 1995, Cells and Materials, 5: 309-321), and
The cell species described were inoculated with an inoculation density of 48,000 cells/cm^2 into, as described above, Costar-48 well plates coated with RGD peptide, and then incubated for 1 hour at 37° C., 95% atmospheric humidity and 5% CO2. Cells unadhered during the experiment were then washed off twice with PBS, pH 7.4.
as §1

[7] = test system: primary human osteoprogenitor cells; assay: Adhesion of primary human osteoprogenitor cells to BSA-pretreated polystyrene surfaces coated with thiol-RGD peptides via sulpho-SMPB; format: cell-based; settings: 48,000 cells/cm^2, 1 hour
Procedure: as §2, §3, §1

| Substance | cell adsorption rates increased in comparison with uncoated surfaces ([1]; bone cement shaped articles, FIG. 8) | maximal adsorption rates ([1]; different PMMA moulded articles, 48,000 cells/cm^2, 1 hour) | EC50 ([1]; different PMMA moulded articles, read-out: half-maximal cell bindings, RGD peptide concentration in the coating solution) | cell adsorption rates increased in comparison with uncoated surfaces ([1]; porous PMMA/PHEMA granule shaped articles, FIG. 9) | cell adsorption rates increased in comparison with uncoated surfaces ([1]; porous Plex Y7H granule shaped articles, FIG. 10) | maximum adsorption rate (of the inoculated cells) [2] | maximum adsorption rate (of the inoculated cells) [3] | cell adhesion of alphav beta3-/alphav beta5-negative control cells (M21L) [4] | cell adsorption rates raised compared with 5% BSA-coated surfaces [5] | stimulation of the adhesion of cultured mouse MC3T3 H1 osteoblasts [6] | maximum adsorption rate (of the inoculated cells) [6] | maximum adsorption rate (of the inoculated cells) [7] |
| --- | --- | --- | --- | --- | --- | --- | --- | --- | --- | --- | --- | --- |
| cyclo(RGDf[acrylic-ahx-tEG-tEGK]) [acrylate peptide 4] | 5-15 fold | 80-100% | 0.001 to 10 µM | 2-5 fold | 2-3 fold |  |  |  |  |  |  |  |
| cyclo-RGDfK NH--CO--CH2 --CH2 --CO--NH--CH2 --CH2 --S-- (sulpho-SMPB) [thiolpeptide 2-(sulpho-SMPB) derivative] |  |  |  |  |  | about 80% | about 70% | do not show any significant cell adhesion | 20-40 fold | strong and dose-dependent stimulation | 90-100% | about 80% |
| cyclo-RGDfK NH--CO--CH2 --CH2 --S-- (sulpho-SMPB) [thiolpeptide 1-(sulpho-SMPB) derivative] |  |  |  |  |  | about 80% | about 70% | do not show any significant cell adhesion | 20-40 fold | strong and dose-dependent stimulation | 90-100% | about 80% |
| cyclo-RGDvE CO--NH--CH2 --CH2 --CH2 --CH2 --CH2 --CO--NH--CH2 --CH2 --S-- (sulpho SMPB) [thiolpeptide 3-(sulfo-SMPB), reference compound] |  |  |  |  |  |  |  |  |  | markedly weaker effect |  |  |
| cyclo-RβADfK-NH--CO--CH2 --CH2 --S-- (sulpho-SMPB) [thiolpeptide control, reference compound] |  |  |  |  |  |  |  |  |  | no significant effect |  |  |
